Tests used:
[1] = system: MASH mouse model (F2 ~ 3); assay: MASH mouse model (F2~3) induced with HFD and CCl4; format: in vivo, C57BL/6J mice; design: Steatosis score / Lobular inflammation score / Ballooning score / NAFLD activity score / Fibrosis Score: scale not given here
Description: A total of 80 5-week-old C57BL/6J male mice were randomly assigned to two groups based on their body weight: a control group (n = 10) and a high-fat diet group (HFD, D12492, n = 70). During the eight-week feeding period, the mice in the two groups were provided with the corresponding diets, including shavings bedding, and their weights were recorded once a week. The change of the weight of each group of mice at a given time were recorded. […] The control diet group was provided with a control diet supplemented with the solvent vehicle, while the HFD control group was given a high-fat diet with the same supplement. The remaining […] groups were provided a high-fat diet containing the solvent and administered a range of doses of Kylo-0603, namely, 0.1 mg/kg, 0.3 mg/kg, 1 mg/kg, 3 mg/kg, and 10 mg/kg. The HFD control group was administered intraperitoneal injections of 0.2 ml/kg CCl4 twice a week for 8 weeks, during which time the mice were fed the same diets as before. The mice were weighed weekly, and the dosage for each week was determined based on their body weight at the commencement of that week. After a period of fasting of between 5 and 6 hours on the day following the final administration of the drug, the mice in each group were euthanized, whole blood was collected from either the orbits or the heart, and the serum was separated and stored at −80°C. The heart and liver tissues of the mice in each group were weighed and photographed. The heart tissues were then quickly frozen in liquid nitrogen and stored in a refrigerator at −80°C, and the middle lobe of the liver was divided into four parts. Two of these samples were quickly frozen in liquid nitrogen and stored at −80°C (for RNA sequencing). The remaining two portions were fixed in a 4% Paraformaldehyde solution and subsequently dehydrated for paraffin embedding and OCT embedding. […] For the quantification of hepatic lipid content, liver tissues were meticulously homogenized in isopropanol (1:9 tissue to isopropanol by mass/volume) on ice. The homogenate was then incubated overnight at 4°C and subsequently centrifuged to […]. The resulting solution was analyzed for TG and Chol using a Hitachi 7020 automated hematochemistry system.
The samples were then washed with pure water.

[2] = system: liver of the MASH mouse models (F2 ~ 3); assay: Gene expression analysis (transcriptome sequencing) in liver of MASH mouse models; format: in vivo, C57BL/6J mice
Description: Transcriptome sequencing was performed on the Illumina sequencing platform, and the library sequencing and biotechnological analysis were performed by Beijing Novozymes Technology Co.
To explore the mechanism by which Kylo-0603 promotes lipid metabolism, we used Illumina’s NEBNext® UtraTM RNA Library Prep Kit to examine the expression of relevant genes in the livers of the MASH mouse models (F2 ~ 3) after Kylo-0603 administration (Fig 8). We first examined the expression of THR-regulated genes, including iodothyronine deiodinase 1 (Dio1), malic enzyme 1 (Me1), and thyroid hormone responsive (Thrsp). Me1 encodes an enzyme that catalyzes the conversion of malate to pyruvate while concomitantly generating NADPH from NADP, and its upregulation promotes energy metabolism. Thrsp is mainly a nuclear protein induced by thyroid hormones, carbohydrate intake, adipose tissue differentiation and lactation and plays an important role in the regulation of lipid metabolism. […] LDL-R (low-density lipoprotein receptor) promotes the cellular uptake of LDL and facilitates cholesterol degradation. […] This finding was consistent with a dose-dependent reduction in the serum LDL-C level (Fig 9A). […] This therapeutic effect was validated by assessing liver histopathology in animal models. Kylo-0603 inhibited the genes encoding the inflammatory factors Tnfrsf1a, IL6, IL17rb, and IL17ra (Fig 9B).
Fig 9 Effects of Kylo-0603 on the expression of related genes of the MASH mouse models. Total RNA was extracted from the frozen liver tissue of the MASH mouse models (F2 ~ 3), and the mice were injected daily with saline or Kylo-0603 at a dosage of 0.1–3 mg/kg/day. Transcriptome sequencing is based on the Illumina sequencing platform. The relative expression of a gene was calculated by normalizing the true expression level of the target gene to the expression level of that gene in the control group.

[3] = 28-day repeated-dose toxicity study in cynomolgus monkeys; format: in vivo
Description: To evaluate the preclinical safety profile of Kylo-0603, a novel liver-targeted thyroid hormone receptor β (TRβ) agonist with therapeutic potential, systematic toxicological assessments were conducted in both non-human primates (cynomolgus monkeys) and rodents (Sprague-Dawley rats). […] The no-observed-adverse-effect level (NOAEL) was determined to be 1.5 mg/kg/day. Collectively, these independent toxicological investigations substantiate Kylo-0603’s favorable safety, providing rigorous preclinical support for clinical advancement.

[4] = Metabolic stability in plasma (humans); conditions: human
Description: We evaluated the metabolic stability of Kylo-0603 in the plasma of CD-1 mice, Sprague–Dawley (SD) rats, beagle dogs, cynomolgus monkeys, and humans. The plasma from the five species was mixed with Kylo-0603 (2 μM) and incubated at 37°C in a thermostatic water tank. The plasma concentrations of Kylo-0603 were monitored via LC-MS/MS at 0, 10, 30, 60, and 120 min.

[5] = 3 mg/kg, 8 weeks, vs HFD + CCl4 + Vehicle
[6] = 10 mg/kg, 8 weeks, vs HFD + CCl4 + Vehicle
[7] = abstract: MASH mouse model, maximum effect

For `CC(=O)N[C@H]1[C@H](OCCCCCCNC(=O)CCOCC(COCCC(=O)NCCCCCCO[C@@H]2O[C@H](CO)[C@H](O)[C@H](O)[C@H]2NC(C)=O)(COCCC(=O)NCCCCCCO[C@@H]2O[C@H](CO)[C@H](O)[C@H](O)[C@H]2NC(C)=O)NC(=O)CCCCCNC(=O)COc2cc(C)c(Cc3ccc(O)c(C(C)C)c3)c(C)c2)O[C@H](CO)[C@H](O)[C@@H]1O` [Kylo-0603], the “decrease of fibrosis score” value ([1]; 3 mg/kg and 10 mg/kg, 8 weeks, vs HFD + CCl4 + Vehicle) was 0.6 points, the ALT decrease ([1]; 3 mg/kg, 8 weeks, serum) was 73.8% and the AST decrease ([1]; 3 mg/kg, 8 weeks, serum) was 76.3%. The “decrease in ballooning degeneration score” value [1, 5] was 0.7 points, the “reduction in hepatic steatosis score” value [1, 5] was “exceeding 1.0 points” and the “reduction in inflammation score” value [1, 5] was “exceeding 1.0 points”. For the same molecule, the “reduction of NAS (NAFLD Activity Score)” value [1, 5] was 3.5 points, the “decrease in ballooning degeneration score” value [1, 6] was 0.8 points and the “reduction in hepatic steatosis score” value [1, 6] was “exceeding 1.0 points”. The “reduction in inflammation score” value [1, 6] was “exceeding 1.0 points”, the “reduction of NAS (NAFLD Activity Score)” value [1, 6] was 3.7 points and the TSH levels ([1]; 8 weeks, blood) was “decreasing trends”. The “levels of thyroid hormones T3, fT3, T4 and fT4” value ([1]; 8 weeks, blood) was “increasing trends”, the Ballooning score ([1]; HFD + CCl4, 0.1 mg/kg, 8 weeks) was 1.4 ± 0.5 and the “Fibrosis Score” value ([1]; HFD + CCl4, 0.1 mg/kg, 8 weeks) was 2.8 ± 0.4. For the same molecule, the “Lobular inflammation score” value ([1]; HFD + CCl4, 0.1 mg/kg, 8 weeks) was 2.4 ± 0.5, the “NAFLD activity score” value ([1]; HFD + CCl4, 0.1 mg/kg, 8 weeks) was 4.7 ± 0.9 and the Steatosis score ([1]; HFD + CCl4, 0.1 mg/kg, 8 weeks) was 0.8 ± 1.0. The Ballooning score ([1]; HFD + CCl4, 0.3 mg/kg, 8 weeks) was 1.4 ± 0.5, the “Fibrosis Score” value ([1]; HFD + CCl4, 0.3 mg/kg, 8 weeks) was 2.3 ± 0.5 and the “Lobular inflammation score” value ([1]; HFD + CCl4, 0.3 mg/kg, 8 weeks) was 2.2 ± 0.4. The “NAFLD activity score” value ([1]; HFD + CCl4, 0.3 mg/kg, 8 weeks) was 4.0 ± 0.9, the Steatosis score ([1]; HFD + CCl4, 0.3 mg/kg, 8 weeks) was 0.3 ± 0.5 and the Ballooning score ([1]; HFD + CCl4, 1 mg/kg, 8 weeks) was 2.0 ± 0.0. For the same molecule, the “Fibrosis Score” value ([1]; HFD + CCl4, 1 mg/kg, 8 weeks) was 2.3 ± 0.5, the “Lobular inflammation score” value ([1]; HFD + CCl4, 1 mg/kg, 8 weeks) was 2.2 ± 0.4 and the “NAFLD activity score” value ([1]; HFD + CCl4, 1 mg/kg, 8 weeks) was 4.3 ± 0.5. For the same molecule, the Steatosis score ([1]; HFD + CCl4, 1 mg/kg, 8 weeks) was 0.1 ± 0.3, the Ballooning score ([1]; HFD + CCl4, 3 mg/kg, 8 weeks) was 1.1 ± 0.3 and the “Fibrosis Score” value ([1]; HFD + CCl4, 3 mg/kg, 8 weeks) was 2.0 ± 0.0. For the same molecule, the “Lobular inflammation score” value ([1]; HFD + CCl4, 3 mg/kg, 8 weeks) was 1.4 ± 0.5, the “NAFLD activity score” value ([1]; HFD + CCl4, 3 mg/kg, 8 weeks) was 2.8 ± 1.0 and the Steatosis score ([1]; HFD + CCl4, 3 mg/kg, 8 weeks) was 0.2 ± 0.4. The Ballooning score ([1]; HFD + CCl4, 10 mg/kg, 8 weeks) was 1.0 ± 0.7, the “Fibrosis Score” value ([1]; HFD + CCl4, 10 mg/kg, 8 weeks) was 2.0 ± 0.0 and the “Lobular inflammation score” value ([1]; HFD + CCl4, 10 mg/kg, 8 weeks) was 1.1 ± 0.5. For the same molecule, the “NAFLD activity score” value ([1]; HFD + CCl4, 10 mg/kg, 8 weeks) was 2.6 ± 1.0, the Steatosis score ([1]; HFD + CCl4, 10 mg/kg, 8 weeks) was 0.4 ± 1.0 and the “decrease of fibrosis score” value ([1]; abstract) was 0.6 points. For the same molecule, the “decrease of ballooning score” value ([1]; abstract, maximum effect) was 0.8 points, the “decrease of inflammation score” value ([1]; abstract, maximum effect) was 1.8 points and the “reduction of NAS” value ([1]; abstract, maximum effect) was “up to 3.7 points”. The “lowering of LDL-C levels” value [1, 7] was “up to 88.2%”, the “lowering of serum cholesterol levels” value [1, 7] was no more than 69.2% and the Atgl expression [2] was “dose-responsive elevation”. The Cpt1a expression [2] was “dose-dependent upregulation”, the Pdk4 expression [2] was “significant increases” and the “Srebf1 and Scd1 expression” value [2] was “coordinated downregulation”. The “genes encoding the inflammatory factors Tnfrsf1a, IL6, IL17rb, IL17ra” value [2] was “inhibited”, the LDL-R gene expression ([2]; dose-dependent) was “upregulated” and the “expression of Dio1, Thrsp and Me1” value ([2]; dose-dependent) was “significantly upregulated”. The peroxisome-related genes ([2]; dose-dependent) was “upregulation”, the “expression of collagen synthesis genes” value ([2]; with increasing doses) was “significantly suppressed” and the “perturbations of the hypothalamic-pituitary-thyroid (HPT) axis” value ([3]; cynomolgus monkeys) was “no perturbations”. The “macroscopic lesions or histopathological changes” value ([3]; oral 0.5, 1 and 5 mg/kg per day, 28 days, 56-day recovery) was “no macroscopic lesions or histopathological changes” and the “plasma stability” value [4] was “stable”.
